Reference: PMC10581193 (Microbiology Spectrum, 2023)
Read-outs that look alike come from different tables or passages of the source.

Experiments:
[1] = tested on: Y48; format: cell-based, M. tuberculosis
[2] = tested on: Y198; format: cell-based, M. tuberculosis
[3] = tested on: Y17; format: cell-based, M. tuberculosis
[4] = target: DprE1 (Mycobacterium tuberculosis, UniProt P9WJF1, Y314H); parameters: species or system M. tuberculosis H37Ra

Row | SMILES | Drug resistance of clinical isolate ([2]; strain Y198) | Drug resistance of clinical isolate ([1]; strain Y48) | other results
1 | CO[C@H]1/C=C/O[C@@]2(C)Oc3c(C)c(O)c4c(O)c(c(/C=N/N5CCN(C)CC5)c(O)c4c3C2=O)NC(=O)/C(C)=C\C=C\[C@H](C)[C@H](O)[C@@H](C)[C@@H](O)[C@@H](C)[C@H](OC(C)=O)[C@@H]1C [RMP, rifampicin] |  |  | Drug resistance of clinical isolate [1]: R; Drug resistance of clinical isolate [2]: R; Drug resistance of clinical isolate [3]: R
2 | [H]/N=C(/N)N[C@H]1[C@H](O)[C@@H](O)[C@H](O[C@@H]2O[C@@H](C)[C@](O)(C=O)[C@H]2O[C@@H]2O[C@@H](CO)[C@H](O)[C@@H](O)[C@@H]2NC)[C@@H](N/C(N)=N\[H])[C@@H]1O [SM, streptomycin] | R |  | 
3 | NNC(=O)c1ccncc1 [INH, isoniazid] | R | R | Drug resistance of clinical isolate ([3]; strain Y17): R
4 | CC[C@@H](CO)NCCN[C@@H](CC)CO [EMB, ethambutol] | R | R | 
5 | COc1ncnc(Cn2cc(C(=O)NCCO)c3ncc(C)cc32)c1C [TBA-7371, reference compound] |  |  | Amino-acid substitution [4]: Tyr→His
6 | CO[C@H]1/C=C/O[C@@]2(C)Oc3c(C)c(O)c4c(c3C2=O)C2=NC3(CCN(CC(C)C)CC3)NC2=C(NC(=O)/C(C)=C\C=C\[C@H](C)[C@H](O)[C@@H](C)[C@@H](O)[C@@H](C)[C@H](OC(C)=O)[C@@H]1C)C4=O [RFB, rifabutin] | R |  | 
7 | CO[C@H]1/C=C/O[C@@]2(C)Oc3c(C)c(O)c4c(O)c(c(/C=N/N5CCN(C6CCCC6)CC5)c(O)c4c3C2=O)NC(=O)/C(C)=C\C=C\[C@H](C)[C@H](O)[C@@H](C)[C@@H](O)[C@@H](C)[C@H](OC(C)=O)[C@@H]1C [RFT, rifapentine] | R |  | 
8 | Nc1ccc(C(=O)O)c(O)c1 [PA, p-aminosalicylic acid] | R | S | 
9 | NC(=O)c1cnccn1 [PZA, pyrazinamide] | R |  | 
10 | Cc1nc(C)c(CN2CCOc3c(C(=O)NCC(F)(F)F)cc(C4CC4)cc32)nc1C [B18, 6-cyclopropyl-N-(2,2,2-trifluoroethyl)-4-((3,5,6-trimethylpyrazin-2-yl)methyl)-3,4-dihydro-2H-benzo[b][1,4]oxazine-8-carboxamide] |  |  | Amino-acid substitution [4]: Tyr→His
